From PMC5218480 (PLoS ONE, 2017)

Test system: MV-4-11 cells
Experiment: Gene expression microarray analysis (Affymetrix PrimeView) and GSEA
Assay type: cell-based, human
Parameters: RFU PODN (11730768_x_at) / Fold change /veh PODN (11730768_x_at) / RFU LINC00158 (11744669_a_at) / Fold change /veh LINC00158 (11744669_a_at) / RFU DUSP10 (11751237_a_at) / Fold change /veh DUSP10 (11751237_a_at) / RFU ID3 (11757404_x_at) / Fold change /veh ID3 (11757404_x_at) / RFU PLEKHG5 (11737974_s_at) / Fold change /veh PLEKHG5 (11737974_s_at) / RFU LRRC4B (11730491_at) / Fold change /veh LRRC4B (11730491_at) / RFU GIMAP4 (11747438_a_at) / Fold change /veh GIMAP4 (11747438_a_at) / RFU KRT8 (11758183_x_at) / Fold change /veh KRT8 (11758183_x_at) / RFU CNN1 (11734310_a_at) / Fold change /veh CNN1 (11734310_a_at) / RFU VPS37D (11726825_at) / Fold change /veh VPS37D (11726825_at) / RFU C10orf10 (11716522_x_at) / Fold change /veh C10orf10 (11716522_x_at) / RFU KIR2DL2 /// KIR2DL4 /// KIR2DL5A /// KIR2DL5B /// KIR2DS1 /// KIR2DS2 /// KIR2DS3 /// KIR2DS4 /// KIR3DL3 /// KIR3DL3 /// KIR3DS1 (11738374_at) / Fold change /veh KIR2DL2 /// KIR2DL4 /// KIR2DL5A /// KIR2DL5B /// KIR2DS1 /// KIR2DS2 /// KIR2DS3 /// KIR2DS4 /// KIR3DL3 /// KIR3DL3 /// KIR3DS1 (11738374_at) / RFU C1QL1 (11718748_at) / Fold change /veh C1QL1 (11718748_at) / RFU TMPRSS4 (11747572_a_at) / Fold change /veh TMPRSS4 (11747572_a_at) / RFU HAMP (11756126_x_at) / Fold change /veh HAMP (11756126_x_at) / RFU RNFT2 (11725882_a_at) / Fold change /veh RNFT2 (11725882_a_at) / RFU NR4A2 (11747474_a_at) / Fold change /veh NR4A2 (11747474_a_at) / RFU ABCC12 (11746883_a_at) / Fold change /veh ABCC12 (11746883_a_at) / RFU TMEM136 (11760407_x_at) / Fold change /veh TMEM136 (11760407_x_at) / RFU CLDN22 /// WWC2 (11732394_at) / Fold change /veh CLDN22 /// WWC2 (11732394_at) / RFU HLA-DPB1 (11760878_x_at) / Fold change /veh HLA-DPB1 (11760878_x_at) / RFU SPINT1 (11716480_a_at) / Fold change /veh SPINT1 (11716480_a_at) / RFU GAP43 (11754022_s_at) / Fold change /veh GAP43 (11754022_s_at) / RFU A4GNT (11735810_at) / Fold change /veh A4GNT (11735810_at) / RFU PRB3 (11715151_x_at) / Fold change /veh PRB3 (11715151_x_at) / RFU TUBB4B (11761932_at) / Fold change /veh TUBB4B (11761932_at) / RFU CAPN14 (11732068_a_at) / Fold change /veh CAPN14 (11732068_a_at) / RFU TMCC2 (11721928_a_at) / Fold change /veh TMCC2 (11721928_a_at) / RFU IRGQ (11745062_a_at) / Fold change /veh IRGQ (11745062_a_at) / RFU FAM174B (11720279_a_at) / Fold change /veh FAM174B (11720279_a_at) / RFU TMPRSS4 (11748680_a_at) / Fold change /veh TMPRSS4 (11748680_a_at) / RFU FAM212B (11763350_a_at) / Fold change /veh FAM212B (11763350_a_at) / RFU PLEKHG5 (11743358_a_at) / Fold change /veh PLEKHG5 (11743358_a_at) / RFU ZSCAN30 (11745921_a_at) / Fold change /veh ZSCAN30 (11745921_a_at) / RFU CMKLR1 (11741424_a_at) / Fold change /veh CMKLR1 (11741424_a_at) / RFU LOC101060620 /// MAPK8IP1 (11723275_at) / Fold change /veh LOC101060620 /// MAPK8IP1 (11723275_at) / RFU SPTSSB (11747773_x_at) / Fold change /veh SPTSSB (11747773_x_at) / RFU PRSS12 (11739890_at) / Fold change /veh PRSS12 (11739890_at) / RFU BIN1 (11741810_x_at) / Fold change /veh BIN1 (11741810_x_at) / RFU WNT11 (11732464_a_at) / Fold change /veh WNT11 (11732464_a_at) / RFU C10orf10 (11716521_a_at) / Fold change /veh C10orf10 (11716521_a_at) / RFU C5orf56 (11738089_at) / Fold change /veh C5orf56 (11738089_at) / RFU CYB561 (11721691_x_at) / Fold change /veh CYB561 (11721691_x_at) / RFU ANKRD19P (11752326_a_at) / Fold change /veh ANKRD19P (11752326_a_at) / RFU OR2T12 /// OR2T33 /// OR2T8 (11738714_s_at) / Fold change /veh OR2T12 /// OR2T33 /// OR2T8 (11738714_s_at) / RFU VCAN (11748164_a_at) / Fold change /veh VCAN (11748164_a_at) / RFU JSRP1 (11732532_at) / Fold change /veh JSRP1 (11732532_at) / RFU KRTAP10-11 (11738290_x_at) / Fold change /veh KRTAP10-11 (11738290_x_at) / RFU MYO3A (11730013_a_at) / Fold change /veh MYO3A (11730013_a_at) / RFU EBF3 (11725865_a_at) / Fold change /veh EBF3 (11725865_a_at) / RFU CAMK2N1 (11719241_x_at) / Fold change /veh CAMK2N1 (11719241_x_at) / RFU C5orf56 (11738088_a_at) / Fold change /veh C5orf56 (11738088_a_at) / RFU OLFML3 (11715873_a_at) / Fold change /veh OLFML3 (11715873_a_at) / RFU LOC100653217 /// NTM (11731650_a_at) / Fold change /veh LOC100653217 /// NTM (11731650_a_at) / RFU MAPK11 (11762145_a_at) / Fold change /veh MAPK11 (11762145_a_at) / RFU FIZ1 (11724087_x_at) / Fold change /veh FIZ1 (11724087_x_at) / RFU OASL (11726364_x_at) / Fold change /veh OASL (11726364_x_at) / RFU SOX15 (11748057_x_at) / Fold change /veh SOX15 (11748057_x_at) / RFU CD79A (11719716_a_at) / Fold change /veh CD79A (11719716_a_at) / RFU HIST1H1D (11736915_at) / Fold change /veh HIST1H1D (11736915_at) / RFU CASKIN2 (11723855_a_at) / Fold change /veh CASKIN2 (11723855_a_at) / RFU LOC730098 (11760151_x_at) / Fold change /veh LOC730098 (11760151_x_at) / RFU OR4N2 (11742367_at) / Fold change /veh OR4N2 (11742367_at) / RFU PRRT2 (11749266_a_at) / Fold change /veh PRRT2 (11749266_a_at) / RFU SNX32 (11753110_a_at) / Fold change /veh SNX32 (11753110_a_at) / RFU CDHR5 (11726645_a_at) / Fold change /veh CDHR5 (11726645_a_at) / RFU RCAN1 (11760418_a_at) / Fold change /veh RCAN1 (11760418_a_at) / RFU FAM167A (11723789_a_at) / Fold change /veh FAM167A (11723789_a_at) / RFU FAM26E (11764081_at) / Fold change /veh FAM26E (11764081_at) / RFU ISYNA1 (11749810_s_at) / Fold change /veh ISYNA1 (11749810_s_at) / RFU ACY1 (11761880_at) / Fold change /veh ACY1 (11761880_at) / RFU 11764098_at / Fold change /veh 11764098_at / RFU SAMD14 (11745864_x_at) / Fold change /veh SAMD14 (11745864_x_at) / RFU NPB (11741838_a_at) / Fold change /veh NPB (11741838_a_at) / RFU TMPRSS6 (11731388_a_at) / Fold change /veh TMPRSS6 (11731388_a_at) / RFU KRTAP10-2 (11738614_at) / Fold change /veh KRTAP10-2 (11738614_at) / RFU ARHGAP8 /// PRR5-ARHGAP8 (11727945_x_at) / Fold change /veh ARHGAP8 /// PRR5-ARHGAP8 (11727945_x_at) / RFU KRTAP5-7 /// NADSYN1 (11734609_at) / Fold change /veh KRTAP5-7 /// NADSYN1 (11734609_at) / RFU RASL12 (11751679_a_at) / Fold change /veh RASL12 (11751679_a_at) / RFU CDKN2B (11736163_a_at) / Fold change /veh CDKN2B (11736163_a_at) / RFU PRF1 (11729649_at) / Fold change /veh PRF1 (11729649_at) / RFU, ZNF638 /// ZNF638-IT1 / Fold change vs veh, ZNF638 /// ZNF638-IT1 / RFU, PANK3 / Fold change vs veh, PANK3 / RFU, SH3YL1 / Fold change vs veh, SH3YL1 / RFU, ZEB2 / Fold change vs veh, ZEB2 / RFU, NRIP1 / Fold change vs veh, NRIP1 / RFU, PTTG1IP / Fold change vs veh, PTTG1IP / RFU, CAPN2 / Fold change vs veh, CAPN2 / RFU, MED14 / Fold change vs veh, MED14 / RFU, SNORA58 / Fold change vs veh, SNORA58 / RFU, C1orf63 / Fold change vs veh, C1orf63 / RFU, LRRFIP1 / Fold change vs veh, LRRFIP1 / RFU, NDUFAF7 / Fold change vs veh, NDUFAF7 / RFU, SLC12A2 / Fold change vs veh, SLC12A2 / RFU, IBTK / Fold change vs veh, IBTK / RFU, ESF1 / Fold change vs veh, ESF1 / Fold change vs veh, TMEM50B / RFU, TAOK1 / Fold change vs veh, TAOK1 / RFU, ACBD3 / Fold change vs veh, ACBD3 / RFU, TMA16 / Fold change vs veh, TMA16 / RFU, RWDD3 / Fold change vs veh, RWDD3 / RFU, BCAT1 / Fold change vs veh, BCAT1 / RFU, EDEM3 / Fold change vs veh, EDEM3 / RFU, TMEM33 / Fold change vs veh, TMEM33 / RFU, WDR75 / Fold change vs veh, WDR75 / RFU, AHCTF1 / Fold change vs veh, AHCTF1 / RFU, TFRC / Fold change vs veh, TFRC / RFU, ZDHHC17 / Fold change vs veh, ZDHHC17 / RFU, NOM1 / Fold change vs veh, NOM1 / RFU, ARL8B / Fold change vs veh, ARL8B / RFU, ZBTB11 / Fold change vs veh, ZBTB11 / RFU, TAMM41 / Fold change vs veh, TAMM41 / RFU, KIAA1704 /// LOC100996395 / Fold change vs veh, KIAA1704 /// LOC100996395 / RFU, ING1 / Fold change vs veh, ING1 / RFU, TRMT61B / Fold change vs veh, TRMT61B / RFU, FUBP3 / Fold change vs veh, FUBP3 / RFU, TP53 / Fold change vs veh, TP53 / RFU, TNKS2 / Fold change vs veh, TNKS2 / RFU, ZFP14 / Fold change vs veh, ZFP14 / RFU, ACTR2 / Fold change vs veh, ACTR2 / RFU, PPP3R1 / Fold change vs veh, PPP3R1 / RFU, PIK3R1 / Fold change vs veh, PIK3R1 / RFU, HNRNPA1 / Fold change vs veh, HNRNPA1 / RFU, RNF170 / Fold change vs veh, RNF170 / RFU, ZNF28 / Fold change vs veh, ZNF28 / RFU, RNGTT / Fold change vs veh, RNGTT / RFU, OGT / Fold change vs veh, OGT / RFU, BRD1 / Fold change vs veh, BRD1 / RFU, MARS / Fold change vs veh, MARS / RFU, ZNF655 / Fold change vs veh, ZNF655 / RFU, FAHD1 / Fold change vs veh, FAHD1 / RFU, BDP1 / Fold change vs veh, BDP1 / RFU, LRRCC1 / Fold change vs veh, LRRCC1 / RFU, ARID1A / Fold change vs veh, ARID1A / RFU, ZNF146 / Fold change vs veh, ZNF146 / RFU, ZNF330 / Fold change vs veh, ZNF330 / RFU, GPN3 / Fold change vs veh, GPN3 / RFU, C9orf123 / Fold change vs veh, C9orf123 / RFU, N4BP2L2 / Fold change vs veh, N4BP2L2 / RFU, ARFIP1 / Fold change vs veh, ARFIP1 / RFU, FAM179B / Fold change vs veh, FAM179B / RFU, BCL10 / Fold change vs veh, BCL10 / RFU, UHRF1BP1L / Fold change vs veh, UHRF1BP1L / RFU, BET1 / Fold change vs veh, BET1 / RFU, CNOT2 / Fold change vs veh, CNOT2 / RFU, ZNF268 / Fold change vs veh, ZNF268 / Fold change vs veh, ZNF507 / RFU, DGCR2 / Fold change vs veh, DGCR2 / RFU, WDSUB1 / Fold change vs veh, WDSUB1 / Fold change vs veh, HSP90B1 /// MIR3652 / RFU, ADSS / Fold change vs veh, ADSS / RFU, GK / Fold change vs veh, GK / RFU, ZNF148 / Fold change vs veh, ZNF148 / RFU, TAF9 / Fold change vs veh, TAF9 / RFU, SLC1A5 / Fold change vs veh, SLC1A5 / RFU, SLMO2 / Fold change vs veh, SLMO2 / RFU, ABCC4 / Fold change vs veh, ABCC4 / RFU, LOC101060439 /// RAP1B / Fold change vs veh, LOC101060439 /// RAP1B / RFU, RFX7 / Fold change vs veh, RFX7 / RFU, GTPBP10 / Fold change vs veh, GTPBP10 / RFU, CNEP1R1 / Fold change vs veh, CNEP1R1 / RFU, BIVM-ERCC5 /// ERCC5 / Fold change vs veh, BIVM-ERCC5 /// ERCC5 / RFU, ILF3 / Fold change vs veh, ILF3 / RFU 11762660_at / Fold change /veh 11762660_at / RFU VCAN (11757783_s_at) / Fold change /veh VCAN (11757783_s_at) / RFU DDX43 (11728927_at) / Fold change /veh DDX43 (11728927_at) / RFU KRT8 (11758188_x_at) / Fold change /veh KRT8 (11758188_x_at) / RFU NKD1 (11759106_at) / Fold change /veh NKD1 (11759106_at) / RFU SRD5A1 (11742802_a_at) / Fold change /veh SRD5A1 (11742802_a_at) / RFU TPSAB1 /// TPSB2 (11721975_s_at) / Fold change /veh TPSAB1 /// TPSB2 (11721975_s_at) / RFU GSTM3 (11746129_a_at) / Fold change /veh GSTM3 (11746129_a_at) / RFU IL23R (11737362_x_at) / Fold change /veh IL23R (11737362_x_at) / RFU TMEM51 (11727254_a_at) / Fold change /veh TMEM51 (11727254_a_at) / RFU PIWIL2 (11732686_x_at) / Fold change /veh PIWIL2 (11732686_x_at) / RFU ORM1 (11744905_x_at) / Fold change /veh ORM1 (11744905_x_at) / RFU CCDC152 (11743942_at) / Fold change /veh CCDC152 (11743942_at) / RFU ECM1 (11717891_a_at) / Fold change /veh ECM1 (11717891_a_at) / RFU IL23R (11748794_a_at) / Fold change /veh IL23R (11748794_a_at) / RFU TNFAIP8L3 (11732012_x_at) / Fold change /veh TNFAIP8L3 (11732012_x_at) / RFU MBOAT4 (11741988_at) / Fold change /veh MBOAT4 (11741988_at) / RFU 11764193_at / Fold change /veh 11764193_at / RFU TMEM53 (11763286_at) / Fold change /veh TMEM53 (11763286_at) / RFU MAGEB2 (11727129_at) / Fold change /veh MAGEB2 (11727129_at) / RFU TMEM200A (11744735_a_at) / Fold change /veh TMEM200A (11744735_a_at) / RFU CCDC152 (11751479_a_at) / Fold change /veh CCDC152 (11751479_a_at) / RFU FAM211A (11726209_a_at) / Fold change /veh FAM211A (11726209_a_at) / RFU RGS16 (11746705_a_at) / Fold change /veh RGS16 (11746705_a_at) / RFU VCAN (11755009_s_at) / Fold change /veh VCAN (11755009_s_at) / RFU RHOB (11743442_s_at) / Fold change /veh RHOB (11743442_s_at) / RFU RGS16 (11720943_a_at) / Fold change /veh RGS16 (11720943_a_at) / RFU RGS16 (11720944_at) / Fold change /veh RGS16 (11720944_at) / RFU, VPS4B / Fold change vs veh, VPS4B / RFU, CREB1 / Fold change vs veh, CREB1 / RFU, DNAJC13 / Fold change vs veh, DNAJC13 / RFU, GNAQ / Fold change vs veh, GNAQ / RFU, CDK5R1 / Fold change vs veh, CDK5R1 / RFU, ZRANB3 / Fold change vs veh, ZRANB3 / RFU, CUL4A / Fold change vs veh, CUL4A / RFU, CCNY / Fold change vs veh, CCNY / RFU, UFL1 / Fold change vs veh, UFL1 / RFU, COG3 / Fold change vs veh, COG3 / RFU, DIAPH2 / Fold change vs veh, DIAPH2 / RFU, SKA2 / Fold change vs veh, SKA2 / RFU, AFF3 / Fold change vs veh, AFF3 / RFU, LMF1 / Fold change vs veh, LMF1 / RFU, IPO11 / Fold change vs veh, IPO11 / RFU, DFFB / Fold change vs veh, DFFB / RFU, FOXP1 / Fold change vs veh, FOXP1 / RFU, CARD8 / Fold change vs veh, CARD8 / RFU, STRN3 / Fold change vs veh, STRN3 / RFU, ADK / Fold change vs veh, ADK / RFU, RASSF2 / Fold change vs veh, RASSF2 / RFU, WIPF1 / Fold change vs veh, WIPF1 / RFU, LARP1B / Fold change vs veh, LARP1B / RFU, RASA1 / Fold change vs veh, RASA1 / RFU, RB1 / Fold change vs veh, RB1 / RFU, PPFIA1 / Fold change vs veh, PPFIA1 / RFU, MAT2A / Fold change vs veh, MAT2A / RFU, CCT5 / Fold change vs veh, CCT5 / RFU, WDR92 / Fold change vs veh, WDR92 / RFU, CUX1 / Fold change vs veh, CUX1 / RFU, TTC7A / Fold change vs veh, TTC7A / RFU, TMEM135 / Fold change vs veh, TMEM135 / RFU, DEPTOR / Fold change vs veh, DEPTOR / RFU, CPM / Fold change vs veh, CPM / RFU, DNAJB6 / Fold change vs veh, DNAJB6 / RFU, CACNA2D3 / Fold change vs veh, CACNA2D3 / RFU, DTX4 / Fold change vs veh, DTX4 / RFU, TFCP2 / Fold change vs veh, TFCP2 / RFU, GMCL1 /// GMCL1P1 / Fold change vs veh, GMCL1 /// GMCL1P1 / RFU, AEBP2 / Fold change vs veh, AEBP2 / RFU, SNHG1 /// SNORD22 /// SNORD25 /// SNORD26 /// SNORD27 /// SNORD28 /// SNORD29 /// SNORD31 / Fold change vs veh, SNHG1 /// SNORD22 /// SNORD25 /// SNORD26 /// SNORD27 /// SNORD28 /// SNORD29 /// SNORD31 / Fold change (Aza/veh), C12orf56 (ProbeSet 11735607_a_at) / Fold change (ACY-1035/veh), C12orf56 (ProbeSet 11735607_a_at) / Fold change (Aza/veh), FGFR1OP (ProbeSet 11751329_s_at) / Fold change (ACY-1035/veh), FGFR1OP (ProbeSet 11751329_s_at) / Fold change (Aza/veh), VPS36 (ProbeSet 11739960_a_at) / Fold change (ACY-1035/veh), VPS36 (ProbeSet 11739960_a_at) / RFU SYPL1 (11715823_x_at) / Fold change /veh SYPL1 (11715823_x_at) / RFU IGFBP7 (11715501_s_at) / Fold change /veh IGFBP7 (11715501_s_at) / RFU REEP3 (11722064_at) / Fold change /veh REEP3 (11722064_at) / RFU IGLL1 (11728026_x_at) / Fold change /veh IGLL1 (11728026_x_at): dose or concentration left out as unconfirmed
Conditions: MV-4-11 cells, 48 hours

## Nc1ncn([C@@H]2O[C@H](CO)[C@@H](O)[C@H]2O)c(=O)n1 [azacitidine]
  RFU FAM211A (11726209_a_at): 7.10 RFU
